From patent US20230172961A1 (priority 2020, published 2023)

Target: SARS-CoV-2 exonuclease complex (nsp14 and nsp10) (Severe acute respiratory syndrome coronavirus 2, UniProt P0DTD1)
Experiment: Exonuclease resistance of RNA terminated with nucleotide analogues, MALDI-TOF MS
Type: biochemical
Conditions: for relative resistance to excision by the exonuclease: analogue at the 3′ terminus of RNA, compared with other 3′ termini; for cleavage of extended RNA after 5 min exonuclease treatment / cleavage of extended RNA after 30 min exonuclease treatment: RNA extended by SARS-CoV-2 RdRp (FIGS. 48, 49)

| Substance | relative resistance to excision by the exonuclease | relative resistance to excision by the exonuclease (listed as 2′-O-Me-CTP) | cleavage of extended RNA after 5 min exonuclease treatment | cleavage of extended RNA after 5 min exonuclease treatment (listed as SFV) | cleavage of extended RNA after 30 min exonuclease treatment | cleavage of extended RNA after 30 min exonuclease treatment (listed as SFV) |
| --- | --- | --- | --- | --- | --- | --- |
| 2′-O-methyl CMP | resistant to excision | much more full-length RNA remaining | – | – | – | – |
| Sofosbuvir | more protected from cleavage | – | minimal appearance of cleavage products | some reduction in the height | significant amount of the intact Sofosbuvir-RNA remaining | still some SFV extended RNA remaining |
| UMP | – | – | substantial cleavage | – | completely disappears | – |
